{
  "source": "patent US9289398B2",
  "about": "“Methods for the production of functional protein from DNA having a nonsense mutation and the treatment of disorders associated therewith” (PTC Therapeutics, Inc., priority 2006, dated 2016)",
  "format_in_all_cases": "in vivo, human",
  "key": {"CFTR": {"test_system": "CFTR", "assay": "Transepithelial potential difference (TEPD) chloride conductance, Phase 2 study in nonsense-mutation-mediated cystic fibrosis", "description": "The measurement of transepithelial potential difference (TEPD), also known as nasal potential difference, provides a sensitive evaluation of sodium and chloride transport directly in secretory epithelial cells via assessment of transepithelial bioelectric properties (Knowles et al., 1981, N. Engl. J. Med. 305(25):1489-95; Knowles et al., 1995, Hum. Gene Ther. 6:445). TEPD is performed in each nostril using standardized techniques (Standaert et al., 2004, Ped. Pulm. 37:385-92). In the procedure, a small plastic catheter is used to assess electrical differences across the outer cell membrane of nasal mucosa cells in the nostril. TEPD values are expressed in millivolts, or mV. A chloride conductance equal to or more electrically negative than −5.0 mV is generally considered to be in the normal range. […] TEPD assessments can also be made on rectal epithelial cells and lower respiratory epithelial cells. Because of the role of the CFTR protein in transporting chloride ions across cell membranes, and because of the absence of this protein, cystic fibrosis patients have an abnormal TEPD chloride conductance. As an endpoint, TEPD has the advantage that it can detect chloride transport changes that are a quantitative integration of the presence, functional activity, and apical location of the CFTR in airway cells. Furthermore, it is a direct measure of CFTR activity that is not likely to be affected by supportive or palliative treatments for CF (with the possible exception of systemically administered aminoglycoside antibiotics). Of importance is evidence that TEPD values can correlate with the degree of pulmonary dysfunction and radiographic abnormality (Ho et al., 1997, Eur. Respir. J. 10(9):2018-22; Fajac et al., 1998, Eur. Respir. J. 12(6):1295-300; Sermet-Gaudelus et al., 2005, Am. J. Respit. Crit. Care Med. 171(9):1026-1031). […] Under baseline conditions, TEPD-assessed chloride channel activity is very unlikely to normalize spontaneously in patients with CF; any observed improvements in TEPD-assessed chloride channel activity are expected to specifically denote pharmacological activity of CFTR-correcting therapies. Accordingly, it has become the primary endpoint in Phase 1-2 pharmacological and gene replacement studies aimed at correcting CFTR dysfunction (Peckham et al., 1995, AJ. Clin Sci (London). 89(3):277-84; Wilschanski et al., 2003, N. Engl. J. Med. 349(15):1433-41).\n3-[5-(2-Fluoro-phenyl)-[1,2,4]oxadiazol-3-yl]-benzoic acid was provided in a formulation described herein.\nClinical endpoints were evaluated using the procedures set forth above. TEPD measurements were made prior to treatment and on days 14 and 28 of Cycle 1 and Cycle 2. Nasal mucosal curettage was collected from each nostril of each patient prior to treatment and on days 14 and 28 of Cycle 1 and Cycle 2. Pulmonary tests, including FEV1, FVC and MEF25-75, were measured prior to treatment, on day −1 of Cycle 2, on day 13 or 14 of Cycle 1 and day 13 or 14 of Cycle 2 in the study being conducted in Israel and the same parameters were measured prior to treatment and on day 13 or 14 of Cycle 2 in the study being conducted in the United States.\nThis is the average of the changes from the beginning to the end of the treatment period in TEPD chloride conductance within each study participant. For example, if the changes in TEPD chloride conductance within each of three participants were −7.0 mV, −2.0 mV and −9.0 mV, the mean change in TEPD chloride conductance among these participants would be −6.0 mV.\nFor purposes of the trials, a chloride conductance response is defined as a TEPD chloride conductance improvement of at least −5 mV. For example, in a patient with a TEPD chloride conductance value of +1.0 my at baseline and a TEPD chloride conductance value of −6.0 mV at the end of treatment, the TEPD chloride conductance improvement would be −7.0 mV, representing a chloride conductance response. […]"}, "[1]": {"assay": "Patient-reported changes in cystic fibrosis symptoms, CF Phase 2 interim analysis", "details": "of 15 CF patients in interim analysis", "source_text": "In addition, although changes in patient's symptoms were not formally measured through the use of a quality-of-life questionnaire, trial investigators were requested to ask about changes in patients' cystic fibrosis symptoms. In the 15 patients included in the interim analysis, 6 reported general improvements in well being, 6 reported decrease in cough and 10 reported decreased mucus thickness and easier clearing of mucus."}, "[2]": {"assay": "Muscle strength (myometry) and timed function tests, DMD Phase 2", "details": "within the 28 days of treatment", "description": "Upper and lower extremity myometry are performed using a hand-held myometer following standardized procedures (Beenakker, 2001, Neuromuscul. Disord. 11(5):441-6; Hyde, 2001, Neuromuscul. Disord 11(2):165-70). It is recommended (depending on the subject's baseline functional status) that evaluated muscle groups include hip abductors, knee extensors, elbow flexors and extensors, and hand grip. Bilateral assessments can be done, and three measurements can be recorded from each muscle group on each side. These parameters are monitored prior to treatment, on the second to last day of treatment, and during a follow-up period after treatment. During the pre-treatment and treatment periods, the myometry procedures are performed prior to the muscle biopsy.\nTimed function tests include time taken to stand from a supine position, time taken to walk 10 meters, and time taken to climb 4 standard-sized stairs (Mendell, 1989, N. Engl. J. Med. 320(24):1592-7; Griggs, 1991, Arch. Neurol. 48(4):383-8). These parameters are monitored prior to treatment, on the second to last day of treatment, and during a follow-up period after treatment. During the pre-treatment and treatment periods, the timed function tests are performed prior to the muscle biopsy. […]"}, "[3]": {"details": "Higher dose level 10, 10, 20 mg/kg TID oral 14 days, 15 CF patients"}, "[4]": {"details": "Lower dose level 4, 4, 8 mg/kg TID oral 14 days, 15 CF patients"}},
  "data": [
    {"smiles": "O=C(O)c1cccc(-c2noc(-c3ccccc3F)n2)c1", "note": "[3-[5-(2-fluoro-phenyl)-[1,2,4]oxadiazol-3-yl]-benzoic acid]", "values": [
      {"measurement": "TEPD chloride conductance in patients with different types of nonsense mutations within the CFTR gene", "setting": "CFTR; 15 CF patients", "result": "Improvements in TEPD chloride conductance"},
      {"measurement": "Mean change in TEPD chloride conductance: Best of nostrils", "setting": "CFTR; [3]", "result": "−6.4", "unit": "mV"},
      {"measurement": "Mean change in TEPD chloride conductance: Mean of both nostrils", "setting": "CFTR; [3]", "result": "−4.4", "unit": "mV"},
      {"measurement": "Mean change in TEPD chloride conductance: Best of nostrils", "setting": "CFTR; [4]", "result": "−9.0", "unit": "mV"},
      {"measurement": "Mean change in TEPD chloride conductance: Mean of both nostrils", "setting": "CFTR; [4]", "result": "−6.7", "unit": "mV"},
      {"measurement": "Treatment effects at the lower and the higher dose levels (TEPD chloride conductance)", "setting": "CFTR; lower 4, 4, 8 mg/kg versus higher 10, 10, 20 mg/kg", "result": "not statistically significant"},
      {"measurement": "Patients reporting decrease in cough", "setting": "[1]", "result": 6},
      {"measurement": "Patients reporting decreased mucus thickness and easier clearing of mucus", "setting": "[1]", "result": 10},
      {"measurement": "Patients reporting general improvements in well being", "setting": "[1]", "result": 6},
      {"measurement": "Changes in muscle strength and timed functions", "setting": "[2]", "result": "small and not significant"}
    ]}
  ]
}
